In patent US20080234130A1, “Compositions providing tolerance to multiple herbicides and methods of use thereof” (priority 2005, published 2008):

Assays:
[1] = tested on: GAT-HRA transgenic cotton plants; test: Greenhouse over the top herbicide spray of cotton; type: in vivo, Gossypium hirsutum; conditions: rimsulfuron 16 g active ingredient/hectare over the top after glyphosate 1.5 lb ae/acre; 14 days after rimsulfuron, 28 days after glyphosate
Excerpt: (§1) Transformed cotton plants were rooted and then transferred to soil for further growth. Plants were then subjected to herbicide spray treatments in a greenhouse. […] Untransformed Coker 312 control plants were dead 2 weeks after glyphosate application. […] Plants transformed with both GAT and HRA were further subjected to an “over the top” application of the sulfonylurea herbicide rimsulfuron at a rate of 16 g active ingredient/hectare. […] In further experiments 32 g ai/ha rimsulfuron were applied to the cotton.

[2] = tested on: untransformed Coker 312 cotton; test: Greenhouse over the top herbicide spray of cotton; type: in vivo, Gossypium hirsutum; conditions: rimsulfuron 16 g active ingredient/hectare, even in the absence of glyphosate
Excerpt: as §1

[3] = tested on: parent elite stiff stalk inbred corn; test: Preemergence effect of ALS herbicides (fresh weight, visual injury); conditions: 200 g/ha, 4 weeks after treatment, 0% no injury, 100% plant death, mean of four replications
[4] = tested on: heterozygous GAT-HRA corn; test: as above; conditions: 200 g/ha, 4 weeks after treatment, 0% no injury, 100% plant death, mean of four replications
[5] = tested on: parent elite stiff stalk inbred corn; test: Postemergence effect of ALS herbicides, glyphosate and glufosinate (fresh weight, visual injury); conditions: 200 g/ha (glyphosate 3472 g ae/ha, glufosinate ammonium 1870 g/ha), 2 weeks after treatment, 0% no injury, 100% plant death, mean of four replications
[6] = tested on: heterozygous GAT-HRA corn; test: as above; conditions: 200 g/ha (glyphosate 3472 g ae/ha, glufosinate ammonium 1870 g/ha), 2 weeks after treatment, 0% no injury, 100% plant death, mean of four replications

SMILES: CCS(=O)(=O)c1cccnc1S(=O)(=O)NC(=O)Nc1nc(OC)cc(OC)n1 [Rimsulfuron, N-[[(4,6-dimethoxy-2-pyrimidinyl)amino]carbonyl]-3-(ethylsulfonyl)-2-pyridinesulfonamide]
- transgenic plants with no deleterious symptoms from the dual herbicide application [1]: approximately 35%
- damage of untransformed Coker 312 plants [2]: severe damage
- % Visual Injury Patent elite stiff stalk inbred [3]: 74%
- % Visual Injury Heterozygous GAT-HRA [4]: 0%
- % Visual Injury Parent elite stiff stalk inbred [5]: 91%
- % Visual Injury Heterozygous GAT-HRA [6]: 10%
